Test results as given in ChEMBL document CHEMBL5370524, “Design and synthesis of a novel class of PDE4 inhibitors with antioxidant properties as bifunctional agents for the potential treatment of COPD” (Eur J Med Chem, 2023).
Values belong to the compound of their own block, whether it stands above or below them. Activity calls are given as the source filed them. The rule behind the calls is not given here.

How the values were obtained:
[1] = Antioxidant activity assessed as DPPH radical scavenging activity at 10 uM by spectrophotometric analysis relative to control; assay type: functional
[2] = Metabolic stability in human liver microsome assessed as intrinsic clearance measured upto 45 mins in presence of NADPH by LC-MS/MS analysis; assay type: ADME; conditions: liver microsomes, read-out: CLH
[3] = Metabolic stability in human liver microsome assessed as half life measured upto 45 mins in presence of NADPH by LC-MS/MS analysis; assay type: ADME; conditions: liver microsomes
RAW264.7 [4] = assay: Antiinflammatory activity in LPS-induced mouse RAW264.7 cells assessed as inhibition of TNF-alpha production at 2.5 to 10 uM pretreated with compound for 1 hr followed by LPS-stimulation and measured after 12 hrs by ELISA analysis; assay type: functional, cell-based; conditions: dose 2.5-10 µM, time 13.0 hrs
[5] = Antioxidant activity assessed as DPPH radical scavenging activity by spectrophotometric analysis; assay type: functional
Mus musculus [6] = species on record: Mus musculus; assay: Antioxidant activity in Fe2+-induced mouse assessed as inhibition of MDA production in lung homogenate at 250 to 1000 uM incubated for 60 mins; assay type: functional; conditions: dose 250-1000 µM
Phosphodiesterase 4 = Phosphodiesterase 4 (Homo sapiens, UniProt P27815+Q08499+Q07343+Q08493); assay: Inhibition of PDE4 (unknown origin) using fluorescein-cAMP as substrate incubated for 45 mins by fluorescence polarization assay; assay type: protein assay
RAW264.7 [7] = assay: Cytotoxicity against LPS-induced mouse RAW264.7 cells assessed as reduction in cell viability at 2.5 to 10 uM measured after 12 hrs by CCK-8 assay; assay type: toxicity, cell-based; conditions: raw264.7, 12 h, dose 2.5-10 µM
Mus musculus [8] = assay: Antiinflammatory activity in LPS-induced ICR mouse model assessed as reduction in TNF-alpha production in serum at 50 mg/kg, ip pretreated with compound for 1 hr followed by LPS-induction and measured after 60 mins ny ELISA analysis; assay type: functional; design: scale not given: the % may be the effect or the level left; conditions: time 2 hrs
[9] = Metal chelating activity assessed as Fe3+-reducing capacity at 0.006 to 0.2 mM incubated for 30 mins by spectrophotometry analysis; conditions: dose 0.006-0.2 mM
Mus musculus [10] = assay: Antiinflammatory activity in LPS-induced ICR mouse model assessed as reduction in TNF-alpha production in serum at 100 mg/kg, ip pretreated with compound for 1 hr followed by LPS-induction and measured after 60 mins ny ELISA analysis; assay type: functional; design: scale not given: the % may be the effect or the level left; conditions: time 2 hrs
[11] = Metal chelating activity assessed as Fe2+-complex formation capacity at 0.1 to 1 mM by spectrophotometry analysis; conditions: dose 0.1-1 mM
Mus musculus [12] = assay: Antiinflammatory activity in LPS-induced ICR mouse model assessed as reduction in TNF-alpha production in serum at 10 mg/kg, ip pretreated with compound for 1 hr followed by LPS-induction and measured after 60 mins ny ELISA analysis; assay type: functional; design: scale not given: the % may be the effect or the level left; conditions: time 2 hrs

SMILES: CC1=NN(c2ccccc2)C(=O)C1
Activity [1]: 23.6%

SMILES: COc1ccc(/C=C/C(=O)c2ccc(O)cc2)cc1OC
Activity [1]: inactive

CLint scaled [2]: 3.36 L/h/kg
half-life [3]: 31.1 min
SMILES: O=C(c1ccc(F)cc1)C1CCN(CCn2c(=O)[nH]c3ccccc3c2=O)CC1 [KETANSERIN]

IC50 [5]: 10.9 µM
IC50 (Phosphodiesterase 4): 2.78 µM
SMILES: COc1ccc(/C=C/C(=O)c2ccc(O)c(O)c2)cc1OC
Activity (RAW264.7 [4]): Active
Activity (Mus musculus [6]): Active
Activity (RAW264.7 [7]): Non-Toxic

SMILES: COc1ccc2c(c1)OC/C(=C\c1ccc(O)c(O)c1)C2=O
Activity [1]: 49.6%

IC50 [5]: 6.36 µM
IC50 (Phosphodiesterase 4): 1.53 µM
SMILES: COc1ccc(/C=C/C(=O)c2ccc(O)c(O)c2)cc1OC(C)C
Activity (RAW264.7 [4]): Active
Activity (Mus musculus [6]): Active
Activity (RAW264.7 [7]): Non-Toxic

IC50 [5]: 6.97 µM
Activity [9]: Active
CLint scaled [2]: 2.17 L/h/kg
half-life [3]: 48 min
Activity [11]: Active
IC50 (Phosphodiesterase 4): 1.56 µM
SMILES: COc1ccc(/C=C/C(=O)c2ccc(O)c(O)c2)cc1OCC1CC1
Activity (Mus musculus [8]): 20.2%
Activity (RAW264.7 [4]): Active
Activity (Mus musculus [6]): Active
Activity (Mus musculus [10]): 54.7%
Activity (RAW264.7 [7]): Non-Toxic

SMILES: O=C(/C=C/c1ccc(O)c(O)c1)c1ccc(O)cc1
Activity [1]: 60.4%

SMILES: COc1ccc(C2CNC(=O)C2)cc1OC1CCCC1 (stereo not drawn) [ROLIPRAM]
Activity (Mus musculus [12]): 55.1%

SMILES: COc1ccc(/C=C2\COc3cc(O)ccc3C2=O)cc1O
Activity [1]: inactive

SMILES: COc1ccc(/C=C2\Oc3cc(O)ccc3C2=O)cc1OCC1CC1
Activity [1]: inactive

SMILES: COc1ccc(/C=C2\Oc3cc(O)ccc3C2=O)cc1OC
Activity [1]: inactive

SMILES: COc1ccc(/C=C2\COc3cc(O)ccc3C2=O)cc1OCC1CC1
Activity [1]: inactive

SMILES: COc1ccc(/C=C2\COc3cc(O)ccc3C2=O)cc1OC
Activity [1]: inactive

SMILES: O=C1/C(=C/c2ccc(O)c(O)c2)COc2cc(O)ccc21
Activity [1]: 48.3%

SMILES: COc1ccc2c(c1)OC/C(=C\c1ccc(O)c(OC)c1)C2=O
Activity [1]: inactive

IC50 [5]: 5.95 µM
IC50 (Phosphodiesterase 4): 1.82 µM
SMILES: COc1ccc(/C=C/C(=O)c2ccc(O)c(O)c2)cc1OC1CCCC1
Activity (RAW264.7 [4]): Active
Activity (Mus musculus [6]): Active
Activity (RAW264.7 [7]): Non-Toxic

IC50 [5]: 6.2 µM
IC50 (Phosphodiesterase 4): 1.45 µM
SMILES: CCOc1cc(/C=C/C(=O)c2ccc(O)c(O)c2)ccc1OC
Activity (RAW264.7 [4]): Active
Activity (Mus musculus [6]): Active
Activity (RAW264.7 [7]): Non-Toxic

SMILES: O=C1/C(=C/c2ccc(O)c(O)c2)Oc2cc(O)ccc21
Activity [1]: 30.2%

SMILES: COc1ccc(/C=C/C(=O)c2ccc(O)cc2)cc1OCC1CC1
Activity [1]: inactive

SMILES: COc1cc(/C=C2\COc3cc(O)ccc3C2=O)ccc1O
Activity [1]: inactive
